Measured values published in US20250179465A1, “SITE-SPECIFIC ENCODING OF FLUORINATED PHENYLALANINE RESIDUES IN BACTERIAL AND MAMMALIAN CELLS” (University of Iowa Research Foundation, priority 2022, published 2025).

What was measured:
PheX-D6 [1] = target: T1, PheX-D6 (Methanosarcina barkeri, UniProt Q6WRH6, C313M/N311A/V366G/W382T); assay: ESI-MS encoding fidelity of sfGFP_N150TAG expressed in HEK 293T cells with PheX-D6; assay type: cell-based, human; design: Phex-D6 HEK; expressed in transfected cells; host or cells: HEK 293T; details: PheX-D6, HEK 293T cells, 2 mM ncAA, estimated
Experimental: (§1) HEK 293T cells were expanded in […]. […] Overall, 7-40 dishes were transfected with master mixes such that each dish received 3.5 μg of pACBAC1, 1.5 μg sfGFP_N150TAG, and 15 μL of PolyJET according to manufacturer's instructions. Media was changed before transfection and approximately 18 hrs after transfection. Cells were harvested approximately 36 hours after transfection. To harvest, each dish was washed twice with DPBS. Cells were harvested via scraping in ice-cold DPBS plus Roche protease inhibitors, on ice, pelleted by centrifugation, and flash frozen in liquid nitrogen. Cells were lysed in hypotonic lysis buffer (10 mM Tris/HCl pH 8, Roche protease inhibitors, 0.1% Triton X 100 Sigma) via dounce homogenization on ice. Cell debris and nuclei were cleared via centrifugation. Clarified lysate was diluted 1:2 in Wash buffer (25 mM Tris/HCl pH 8, 20 mM Imidazole, 150 mM NaCl) and applied to pre-equilibrated Ni-NTA resin (Qiagen). Column was washed in at least 30 volumes of wash buffer, then protein was eluted in elution buffer (25 mM Tris/HCl pH 8, 250 mM Imidazole, 150 mM NaCl). Elution was exchanged into 100 mM TEAB, prepared via 1:10 dilution of 1 M Stock (thermofisher) in ultrapure water. Finally, protein was concentrated to ˜0.5 mg/ml, flash frozen, and submitted to Novatia Inc for ESI mass spec of the intact protein. […] The spectra was analyzed in-house by Novatia (Promass software) to yield relative intensities of the dominant mass and any other apparent peaks. […] To be conservative, all other peaks were considered unexpected mass, even though they may not represent actual misincorporation.
Target sequence in this assay (Q6WRH6 other isoform, or with tags, fused parts or gaps N311A/C313M/V366G/W382T): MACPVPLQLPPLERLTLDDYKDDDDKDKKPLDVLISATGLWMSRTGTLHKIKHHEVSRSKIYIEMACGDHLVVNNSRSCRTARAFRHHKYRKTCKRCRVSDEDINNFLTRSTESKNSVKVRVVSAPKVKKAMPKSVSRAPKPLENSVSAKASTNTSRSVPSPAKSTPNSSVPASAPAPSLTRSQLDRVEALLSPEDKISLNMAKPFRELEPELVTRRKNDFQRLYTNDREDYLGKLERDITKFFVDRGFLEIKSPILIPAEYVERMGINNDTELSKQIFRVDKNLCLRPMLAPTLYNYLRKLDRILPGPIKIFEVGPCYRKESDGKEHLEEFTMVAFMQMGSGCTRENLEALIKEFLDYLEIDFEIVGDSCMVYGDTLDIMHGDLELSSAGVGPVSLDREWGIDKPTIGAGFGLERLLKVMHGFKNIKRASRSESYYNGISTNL

PheX-B5 [2] = target: T2, PheX-B5 (Methanosarcina barkeri, UniProt Q6WRH6, C313A/N311G); assay: ESI-MS encoding fidelity of sfGFP_N150TAG expressed in HEK 293T cells with PheX-B5; assay type: cell-based, human; design: Phex-B5 HEK; expressed in transfected cells; host or cells: HEK 293T; details: for fidelity (encoding): PheX-B5, HEK 293T cells, sfGFP_N150TAG, 2 mM ncAA, ESI-MS, estimated
Experimental: as §1
Target sequence in this assay (Q6WRH6 other isoform, or with tags, fused parts or gaps N311G/C313A): as the sequence (Q6WRH6 other isoform, or with tags, fused parts or gaps N311A/C313M/V366G/W382T) above, with A336G, M338A, G391V, T407W counted along it

sfGFP-N150TAG = assay: Permissivity screen (E. coli), sfGFP-N150TAG rescue fluorescence; assay type: cell-based; details: result in words; for encoding level in E. coli by the synthetases tested: 1 mM ncAA, 24 hours
Experimental: Electrocompetent DH10B cells containing the pALS reporter plasmid were transformed with isolated pBK plasmids containing the synthetases. Cultures of 5 mL were inoculated with single colonies of each synthetase in non-inducing media with 50 μg/mL kanamycin and 25 μg/mL tetracycline and grown for 16 hours. Noncanonical amino acid stocks were made at 100× their final concentration. 96-well blocks were prepared with 500 μL of auto-induction media containing antibiotics, and ncAAs with a final working concentration of 1 mM were added to their respective wells. Each well was then inoculated with a corresponding synthetase, yielding a final 96-well block where each synthetase was tested against each amino acid of interest. Cultures were grown in duplicate and fluorescence measurements were taken at 24 hours.

PheX-D6 [3] = target: T1, PheX-D6; assay: ESI-MS encoding fidelity of sfGFP_N150TAG expressed in E. coli with PheX-D6; assay type: cell-based; design: Phex-D6 ECOLI; expressed in transfected cells; host or cells: E. coli; details: sfGFP N150TAG, 1 mM ncAA, intact protein ESI-MS
Experimental: (§2) Previously existing E. coli containing sfGFP150TAG and a given Rs in non-inducing media were used to inoculate 5 mL cultures of non-inducing media containing 50 μg/mL Kan and 25 μg/mL Tet. Cultures were incubated for 20 hours at 37° C., shaking at 250 rpm. After adequate growth, 500 μL of the 5 mL cultures were used to inoculate 50 mL cultures of auto-inducing media containing 1 mM ncAA. Cultures were incubated for 24 hours (37° C., 250 rpm), after which cultures were then spun down at 5000 rcf for 10 minutes and resuspended in 10 mL of a Tris buffer solution containing 100 mM Tris, 0.5 M NaCl, and 5 mM imidazole. Cells were lysed by micro-fluidization at 18,000 psi and centrifuged at […] for 30 minutes. sfGFP proteins in cell lysate were bound to TALON Metal Affinity Resin (bed volume of 100 μL) at 4° C. for 1 hour. Lysate and bound resin were transferred to a gravity-flow column and the resin was washed with 30 bed volumes of buffer. Protein was eluted using Tris buffer solution previously described supplemented with 200 mM imidazole. Protein concentration was assessed by comparing sfGFP fluorescence to a standard curve and submitted for ESI-MS.
(§3) The spectra were analyzed in-house by Novatia (Promass) to yield relative intensities at given masses. […] For the purpose of estimating encoding fidelity, these were considered part of the expected mass, and all other signals were considered non-expected mass.
Target sequence in this assay (Q6WRH6 whole entry N311A/C313M/V366G/W382T): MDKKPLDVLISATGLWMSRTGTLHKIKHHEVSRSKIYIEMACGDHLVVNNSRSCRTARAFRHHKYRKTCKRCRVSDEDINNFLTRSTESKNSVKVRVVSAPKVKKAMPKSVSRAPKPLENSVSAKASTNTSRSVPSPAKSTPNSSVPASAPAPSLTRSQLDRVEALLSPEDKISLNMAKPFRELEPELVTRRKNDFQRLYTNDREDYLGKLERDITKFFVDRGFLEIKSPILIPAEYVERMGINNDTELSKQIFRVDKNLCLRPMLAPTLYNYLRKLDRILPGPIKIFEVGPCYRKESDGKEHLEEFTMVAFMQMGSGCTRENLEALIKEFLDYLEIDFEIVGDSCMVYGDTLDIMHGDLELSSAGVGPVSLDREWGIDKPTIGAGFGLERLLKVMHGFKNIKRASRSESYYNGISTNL

PheX-B5 [4] = target: T2, PheX-B5; assay type: cell-based; design: Phex-B5 ECOLI; expressed in transfected cells; host or cells: E. coli; details: PheX-B5, E. coli, sfGFP N150TAG, 1 mM ncAA, intact protein ESI-MS
Experimental: as §2, §3
Target sequence in this assay (Q6WRH6 whole entry N311G/C313A): as the sequence (Q6WRH6 whole entry N311A/C313M/V366G/W382T) above, with A311G, M313A, G366V, T382W counted along it

F508TAG-CFTR = assay: Western blot of full-length F508TAG-CFTR expression via PheX-D6; assay type: cell-based, human; details: F508TAG CFTR with PheX-D6, HEK 293T, 2 mM ncAA, result in words
Experimental: (§4) pCMV-CFTR was a gift from Paul McCray (University of Iowa). WT CFTR-TAA (the existing TAG stop codon changed to TAA), F508 TAG CFTR (TAG amber codon introduced at F508 in the above WT construct), as well as WT and F1486TAG hNav 1.5_strep_HIS_strep were produced using standard methods and sequenced through the open reading frame. For expression of WT CFTR, 10 cm dishes of HEK 293T cells were transfected with 1.5 μg WT CFTR-TAA and 0.25 μg WT GFP. For expression of WT hNav 1.5, 10 cm dishes of HEK 293T cells were transfected with 1.5 μg of WT hNav 1.5_strep_HIS_strep and 0.25 μg WT GFP. For encoding of 2,3,6F Phe, 10 cm dishes of HEK 293T cells were transfected from master mixes of DNA such that each dish received 3.5 μg of PheX-D6 and 0.25 μg of sfSFGFP_N150TAG. Depending on condition, 2 μg of F508TAG-CFTR or 1.5 μg of F1486TAG-Nav 1.5-SHS were added. Media was changed twice (˜16 hr and ˜32 hr post transfection), and cells were harvested ˜44 hrs post transfection and flash frozen in aliquots. Cell pellets were resuspended in RIPA (Sigma Aldrich) plus Roche protease inhibitors. 60 μg of protein from cleared, unconcentrated lysate (or a dilution) was loaded on 4-20% SDS gels. […]

F1486TAG-hNav 1.5 = assay: Western blot of full-length F1486TAG-hNav 1.5 expression via PheX-D6; assay type: cell-based, human; details: F1486TAG hNav 1.5 with PheX-D6, HEK 293T, 2 mM ncAA, result in words
Experimental: as §4

sfGFP_N150TAG = assay: Permissivity screen (mammalian), lysate GFP fluorescence; assay type: cell-based, human; details: HEKT cells, PheX-D6, result in words
Experimental: HEKT cells were seeded in 60 mm dishes so that they would be approximately 60-80% confluent the next day. We transfected the cells using 1.75 μg of the PacBac1-based synthetase plasmid (PheX-D6 or PheX-B5) and 0.75 μg of sfGFP_N150TAG per dish. Polyjet was used (7.5 μl per dish, 2.5 mL media volume). Media was exchanged to contain ncAAs at a given concentration before transfection and approximately 16 hours after transfection. Amino acids were solubilized either in NaOH for those synthesized as free acids (penta-flouro, 2,3,6 trifluoro, 3,4,5 trifluoro, 2,5 difluoro, 2,4 difluoro, 2 mono) or in HCl for those synthesized as HCl salts (2,3,5,6 tetrafluoro, 2,3,4,5 tetrafluoro, 2,6 difluoro). Cells were imaged and harvested approximately 24 hrs after transfection. Images were taken with 20× objective using a Leica DFC9000GT camera with 700 ms exposure, without binning. Excitation was through an X-Cite 120 LED (Lumen Dynamics) set to 100% intensity. For bright field images, light was adjusted manually. […] After cell debris and nuclei were cleared via centrifugation, GFP fluorescence was read from supernatants in 96 well plates; for each concentration of amino acid, at least 6 readings were made from at least 2 transfections. The level of fluorescence from lysates from untransfected cells averaged 21.7±2.1 RFU. […]

SMILES | fidelity (encoding) (PheX-D6 [1]) [%] | fidelity (encoding) (PheX-B5 [2]) [%] | encoding level in E. coli by the synthetases tested (sfGFP-N150TAG) | encoding fidelity (PheX-D6 [3]) [%] | encoding fidelity (PheX-B5 [4]) [%] | expression of full-length channel (western blot) (F508TAG-CFTR) | expression of full-length channel (western blot) (F1486TAG-hNav 1.5) | expression in the screen (sfGFP-N150TAG; E. coli, D6 synthetase) | site-specificity of encoding (ESI-MS) (PheX-B5 [2]; HEKT cells, sfGFP-N150TAG with PheX-B5, result in words) | useable ncAA concentration (dose-response) (sfGFP_N150TAG)
N[C@@H](Cc1cc(F)c(F)c(F)c1F)C(=O)O [2,3,4,5-fluoro phenylalanine, 2,3,4,5 tetra-fluoro Phenylalanine] | 100 | 97.4 |  |  |  |  |  |  |  | 
N[C@@H](Cc1c(F)c(F)cc(F)c1F)C(=O)O [2,3,5,6-fluoro Phe, 2,3,5,6 tetra-fluoro Phenylalanine] | 98.2 | 100 | comparable levels to para-methyl tetra-fluoro Phe | 98.7 | 97.9 |  |  |  |  | 
N[C@@H](Cc1c(F)ccc(F)c1F)C(=O)O [2,3,6-fluoro Phe, 2,3,6 tri-fluoro Phenylalanine] | 98.5 | 100 |  | 96.7 | 88.1 | dependent on addition of 2,3,6F Phe | dependent on addition of 2,3,6F Phe |  |  | 
N[C@@H](Cc1cc(F)ccc1F)C(=O)O [2,5-fluoro phenylalanine, 2,5-difluoro-Phe] | 95.6 | 91.3 |  |  |  |  |  |  |  | 
N[C@@H](Cc1c(F)cccc1F)C(=O)O [2,6-fluoro Phe, 2,6 di-fluoro Phenylalanine] | 97.6 | 100 |  | 95.0 | 81.8 |  |  |  |  | 
N[C@@H](Cc1ccccc1F)C(=O)O [2-fluoro Phe, 2-mono fluoro Phenylalanine] |  |  |  |  | 95.6 |  |  | low expression in the screen | widespread encoding of 2-mono fluoro Phe at Phe-codons | 
N[C@@H](Cc1c(F)c(F)c(F)c(F)c1F)C(=O)O [Penta-fluoro Phe, 2,3,4,5,6 penta-fluoro Phenylalanine] | 97.5 | 96.2 | comparable levels to para-methyl tetra-fluoro Phe | 98.2 | 97.5 |  |  |  |  | useable at sub-millimolar concentrations
